Each compound was assayed against human A2A receptor (A2AR) (Homo sapiens (Human), UniProt P29274) (assay: Luciferase reporter assay (HEK293-A2AR-luc2p/CRE/Hygro cells)). Settings: 3 nM CGS21680, 5 h incubation.
Assay type: cell-based
Procedure, shortened: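 Antagonism was scored as inhibition of CRE-luciferase signal driven by 3 nM CGS21680 (=100%) during a 5 h treatment with compound at 0.1–10000 nM. The line was HEK293 stably carrying human A2AR and luc2P/CRE, preincubated 18 h in 1% FBS containing 1 U/mL ADA. IC50 came from the dose-response curve.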

Chain of human A2A receptor (A2AR) (P29274 whole entry): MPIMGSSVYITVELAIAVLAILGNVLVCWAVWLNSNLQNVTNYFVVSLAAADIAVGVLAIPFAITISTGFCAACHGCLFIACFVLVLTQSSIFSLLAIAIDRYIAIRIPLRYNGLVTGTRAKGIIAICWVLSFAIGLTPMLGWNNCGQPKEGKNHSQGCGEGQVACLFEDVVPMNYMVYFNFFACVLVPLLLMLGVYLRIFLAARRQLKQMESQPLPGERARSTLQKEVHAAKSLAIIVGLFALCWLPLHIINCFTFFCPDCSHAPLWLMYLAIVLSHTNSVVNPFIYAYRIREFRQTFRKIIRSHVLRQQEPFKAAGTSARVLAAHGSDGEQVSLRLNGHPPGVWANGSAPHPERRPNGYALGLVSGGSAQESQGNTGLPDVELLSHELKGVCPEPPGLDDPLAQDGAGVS

Structure (SMILES)	IC50 [nM]
Cc1ccccc1C(C)(C(=O)NCC1(O)COC1)n1ncc2c1nc(N)n1nc(-c3ccco3)nc21 (stereo not drawn) [Example 63, 2-(5-amino-2-(furan-2-yl)-7H-pyrazolo[4,3-e][1,2,4]triazolo[1,5-c]pyrimidin-7-yl)-N-((3-hydroxyoxetan-3-yl)methyl)-2-(o-tolyl)propanamide]	4.3
CC(C(=O)N[C@H]1CCCC[C@@H]1O)(c1ccccc1)n1ncc2c1nc(N)n1nc(-c3ccco3)nc21 (stereo partly drawn) [Example 57, 2-(5-amino-2-(furan-2-yl)-7H-pyrazolo[4,3-e][1,2,4]triazolo[1,5-c]pyrimidin-7-yl)-N-((1S,2S)-2-hydroxycyclohexyl)-2-phenylpropanamide]	29
CC(C(=O)N[C@@H]1CNC(=O)C1)(c1ccccc1)n1ncc2c1nc(N)n1nc(-c3ccco3)nc21 (stereo partly drawn) [Example 100, 2-(5-amino-2-(furan-2-yl)-7H-pyrazolo[4,3-e][1,2,4]triazolo[1,5-c]pyrimidin-7-yl)-N—((S)-5-oxopyrrolidin-3-yl)-2-phenylpropanamide]	11.8
C[C@](C(=O)NCc1ncccc1F)(c1ccccc1)n1ncc2c1nc(N)n1nc(-c3ccco3)nc21 [Example 119B, (R)-2-(5-amino-2-(furan-2-yl)-7H-pyrazolo[4,3-e][1,2,4]triazolo[1,5-c]pyrimidin-7-yl)-N-((3-fluoropyridin-2-yl)methyl)-2-phenylpropanamide]	2
CC(C)(C(=O)NCC1(O)COC1)n1ncc2c1nc(N)n1nc(-c3ccco3)nc21 [Example 138, 2-(5-amino-2-(furan-2-yl)-7H-pyrazolo[4,3-e][1,2,4]triazolo[1,5-c]pyrimidin-7-yl)-N-((3-hydroxyoxetan-3-yl)methyl)-2-methylpropanamide]	33.2
CC(C(=O)N[C@H]1COC[C@H]1O)(c1ccccc1)n1ncc2c1nc(N)n1nc(-c3ccco3)nc21 (stereo partly drawn) [Example 107, 2-(5-amino-2-(furan-2-yl)-7H-pyrazolo[4,3-e][1,2,4]triazolo[1,5-c]pyrimidin-7-yl)-N-((3S,4S)-4-hydroxytetrahydrofuran-3-yl)-2-phenylpropanamide]	76.3
CC(C(=O)N[C@H]1CC[C@@](C)(O)CC1)(c1ccccc1)n1ncc2c1nc(N)n1nc(-c3ccco3)nc21 (stereo partly drawn) [Example 33, 2-(5-amino-2-(furan-2-yl)-7H-pyrazolo[4,3-e][1,2,4]triazolo[1,5-c]pyrimidin-7-yl)-(trans)-N-(4-hydroxy-4-methylcyclohexyl)-2-phenylpropanamide]	8.4
C[C@](C(=O)NCc1ccccn1)(c1ccccc1)n1ncc2c1nc(N)n1nc(-c3ccco3)nc21 [Example 66B, (R)-2-(5-amino-2-(furan-2-yl)-7H-pyrazolo[4,3-e][1,2,4]triazolo[1,5-c]pyrimidin-7-yl)-2-phenyl-N-(pyridin-2-ylmethyl)propanamide]	2.4
Cc1ccc(CNC(=O)C(c2ccccc2)n2ncc3c2nc(N)n2nc(-c4ccco4)nc32)cc1 (stereo not drawn) [Example 25, 2-(5-amino-2-(furan-2-yl)-7H-pyrazolo[4,3-e][1,2,4]triazolo[1,5-c]pyrimidin-7-yl)-N-(4-methylbenzyl)-2-phenylacetamide]	1.5
CC(C(=O)N[C@H]1C[C@@H](O)C1)(c1ccccc1)n1ncc2c1nc(N)n1nc(-c3ccco3)nc21 (stereo partly drawn) [Example 104, 2-(5-amino-2-(furan-2-yl)-7H-pyrazolo[4,3-e][1,2,4]triazolo[1,5-c]pyrimidin-7-yl)-N-((1s,3s)-3-hydroxycyclobutyl)-2-phenylpropanamide]	18.2
Cc1cccc(CNC(=O)C(C)(c2ccccc2)n2ncc3c2nc(N)n2nc(-c4ccco4)nc32)n1 (stereo not drawn) [Example 108, 2-(5-amino-2-(furan-2-yl)-7H-pyrazolo[4,3-e][1,2,4]triazolo[1,5-c]pyrimidin-7-yl)-N-((6-methylpyridin-2-yl)methyl)-2-phenylpropanamide]	3
Cc1cccc(C(C)(C(=O)NCC2(O)COC2)n2ncc3c2nc(N)n2nc(-c4ccco4)nc32)c1 (stereo not drawn) [Example 85, 2-(5-amino-2-(furan-2-yl)-7H-pyrazolo[4,3-e][1,2,4]triazolo[1,5-c]pyrimidin-7-yl)-N-((3-hydroxyoxetan-3-yl)methyl)-2-(m-tolyl)propanamide]	7.3
CC(C(=O)N[C@H]1CC[C@](C)(O)CC1)(c1ccccc1)n1ncc2c1nc(N)n1nc(-c3ccco3)nc21 (stereo partly drawn) [Example 69, 2-(5-amino-2-(furan-2-yl)-7H-pyrazolo[4,3-e][1,2,4]triazolo[1,5-c]pyrimidin-7-yl)-(cis)-N-(4-hydroxy-4-methylcyclohexyl)-2-phenylpropanamide]	10.5

Second part, the compound after the results:

IC50 [nM]	Structure (SMILES)
14.2	CC(C(=O)N[C@H]1CCCC[C@H]1O)(c1ccccc1)n1ncc2c1nc(N)n1nc(-c3ccco3)nc21 (stereo partly drawn) [Example 58A, 2-(5-amino-2-(furan-2-yl)-7H-pyrazolo[4,3-e][1,2,4]triazolo[1,5-c]pyrimidin-7-yl)-N-((1S,2R)-2-hydroxycyclohexyl)-2-phenylpropanamide]
3.7	CC(C(=O)NCC1CCCO1)(c1ccccc1)n1ncc2c1nc(N)n1nc(-c3ccco3)nc21 (stereo not drawn) [Example 49, 2-(5-amino-2-(furan-2-yl)-7H-pyrazolo[4,3-e][1,2,4]triazolo[1,5-c]pyrimidin-7-yl)-2-phenyl-N-((tetrahydrofuran-2-yl)methyl)propanamide]
19.2	CC(C(=O)NC1CCOCC1)(c1ccccc1)n1ncc2c1nc(N)n1nc(-c3ccco3)nc21 (stereo not drawn) [Example 98, 2-(5-amino-2-(furan-2-yl)-7H-pyrazolo[4,3-e][1,2,4]triazolo[1,5-c]pyrimidin-7-yl)-2-phenyl-N-(tetrahydro-2H-pyran-4-yl)propanamide]
5.3	CC(C(=O)NC[C@H]1CCCO1)(c1ccccc1)n1ncc2c1nc(N)n1nc(-c3ccco3)nc21 (stereo partly drawn) [Example 50, 2-(5-amino-2-(furan-2-yl)-7H-pyrazolo[4,3-e][1,2,4]triazolo[1,5-c]pyrimidin-7-yl)-2-phenyl-N—(((R)-tetrahydrofuran-2-yl)methyl)propanamide]
31	CC(C(=O)NCC1COC1)(c1ccccc1)n1ncc2c1nc(N)n1nc(-c3ccco3)nc21 (stereo not drawn) [Example 79, 2-(5-amino-2-(furan-2-yl)-7H-pyrazolo[4,3-e][1,2,4]triazolo[1,5-c]pyrimidin-7-yl)-N-(oxetan-3-ylmethyl)-2-phenylpropanamide]
6.7	CC(C(=O)N[C@H]1CC[C@H](O)CC1)(c1ccccc1)n1ncc2c1nc(N)n1nc(-c3ccco3)nc21 (relative stereo) [Example 52, 2-(5-amino-2-(furan-2-yl)-7H-pyrazolo[4,3-e][1,2,4]triazolo[1,5-c]pyrimidin-7-yl)-(trans)-N-(4-hydroxycyclohexyl)-2-phenylpropanamide]
9.4	CC(C(=O)NCC1(O)CCOCC1)(c1ccccc1)n1ncc2c1nc(N)n1nc(-c3ccco3)nc21 (stereo not drawn) [Example 80, 2-(5-amino-2-(furan-2-yl)-7H-pyrazolo[4,3-e][1,2,4]triazolo[1,5-c]pyrimidin-7-yl)-N-((4-hydroxytetrahydro-2H-pyran-4-yl)methyl)-2-phenylpropanamide]
3.8	CC(C(=O)NCC1(O)CCC1)(c1ccccc1)n1ncc2c1nc(N)n1nc(-c3ccco3)nc21 (stereo not drawn) [Example 71, 2-(5-amino-2-(furan-2-yl)-7H-pyrazolo[4,3-e][1,2,4]triazolo[1,5-c]pyrimidin-7-yl)-N-((1-hydroxycyclobutyl)methyl)-2-phenylpropanamide]

Reference: US11472811B2, “Pyrazolotriazolopyrimidine derivatives as A2A receptor antagonist” (BEIGENE, LTD., priority 2018, dated 2022)
